Experimental data: patent US20240358693A1, “METHODS OF TREATING PAIN” (Aisa Pharma, Inc., priority 2023, published 2024)

What was measured:
Type in all cases: in vitro ADME
[1] = In vitro equilibrium dialysis (RED) protein binding, rat plasma; settings: male, Sprague-Dawley, pH 7.4
Method: (§1) Cilnidipine was tested by PsychoGenics using standard methodology in 96-well RED (Rapid Equilibrium Dialysis) plates from Thermo Fisher Scientific. Male Sprague-Dawley plasma and brain were obtained from BioIVT to provide the required protein matrix. Plasma was used undiluted, and brain homogenate was diluted 3 to 1 with PBS, pH 7.4. The protein matrix was spiked with the test compound dissolved in DMSO to achieve a 10 μM solution. Three chambers were used to allow for triplicate measures with a final DMSO concentration of <1% in each. The dialysate compartments of the 96-well dialysis chamber was loaded with PBS, pH 7.4 and the sample side was loaded with equal volume of the spiked protein matrix. The dialysis plate was then sealed and incubated at 37° C. for 4 h. After the incubation, samples were taken from each compartment. The buffer side was diluted with the appropriate matrix (plasma or brain homogenate) and the protein matrix side diluted with phosphate buffer. Resultant samples were then crashed in acetonitrile, centrifuged and the supernatant mixed with an aqueous solution providing samples for UPLC-MS/MS analysis. […] This control sample served as the basis for the determination of recovery. […] Samples were analyzed by UPLC-MS/MS using […] (MRM). The UPLC conditions consisted of a binary LC pump with autosampler, an InertSustain column (C18 column, 2.1×50 mm), utilizing gradient elution. The peak areas of the test compound in the buffer and test samples were used to calculate percent binding and recovery according to the following formulas: […]
(§2) The recovery determination serves as an indicator of reliability of the calculated protein binding value.
(§3) The characterization of protein binding is defined using the following ranges:
(§4) • Low 0 to 50% • Moderate 50 to 90% • High 90 to 99% • Very High>99%

[2] = tested on: rat plasma proteins; assay: as above; settings: male, Sprague-Dawley, plasma, 4 h, 10 μM, pH 7.4
Method: as §1, §2, §3, §4

[3] = In vitro equilibrium dialysis (RED) protein binding, rat brain homogenate; settings: male, Sprague-Dawley, rat, pH 7.4
Method: as §1, §2, §3, §4

[4] = tested on: rat brain homogenate proteins; assay: as above; settings: male, Sprague-Dawley, rat, brain homogenate, 4 h, 10 μM, pH 7.4
Method: as §1, §2, §3, §4

recovery at 4 h, 10 μM [1] [%]	fraction unbound at 4 h, 10 μM ([1]; plasma)	Unbound (%) [2] [%]	fraction unbound at 4 h, 10 μM ([3]; brain homogenate)	recovery at 4 h, 10 μM [3] [%]	Unbound (%) [4] [%]	SMILES
112.7 ± 0.76	0.008	0.8 ± 0.02	0.827	132 ± 0.57	82.7 ± 4.98	CC(=O)CC(c1ccccc1)c1c(O)c2ccccc2oc1=O (centres unmarked) [warfarin]
93.7 ± 3.89	–	–	–	125 ± 1.54	–	C=C[C@H]1C[N@@]2CC[C@H]1C[C@@H]2[C@@H](O)c1ccnc2ccc(OC)cc12 [quinidine]
